Target: full-length recombinant human FYN A (Homo sapiens (Human), UniProt P06241)
Assay: ADP-Glo Kinase Assay of FYN kinase inhibition
Assay type: biochemical
Conditions: primary screen, initial compounds
Procedure, shortened: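 GST-tagged full-length FYN A (baculovirus, Sf9) at 3 pg preincubated 30 min RT with compound (10-point 3-fold series from 10 μM) in Tris pH 7.5/MgCl2 buffer. 12-mer tyrosine peptide plus 12.5 pmol ATP added, 90 min RT; ADP measured by ADP-Glo luminescence, IC50 from dose-response.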

Chain of full-length recombinant human FYN A (P06241 whole entry): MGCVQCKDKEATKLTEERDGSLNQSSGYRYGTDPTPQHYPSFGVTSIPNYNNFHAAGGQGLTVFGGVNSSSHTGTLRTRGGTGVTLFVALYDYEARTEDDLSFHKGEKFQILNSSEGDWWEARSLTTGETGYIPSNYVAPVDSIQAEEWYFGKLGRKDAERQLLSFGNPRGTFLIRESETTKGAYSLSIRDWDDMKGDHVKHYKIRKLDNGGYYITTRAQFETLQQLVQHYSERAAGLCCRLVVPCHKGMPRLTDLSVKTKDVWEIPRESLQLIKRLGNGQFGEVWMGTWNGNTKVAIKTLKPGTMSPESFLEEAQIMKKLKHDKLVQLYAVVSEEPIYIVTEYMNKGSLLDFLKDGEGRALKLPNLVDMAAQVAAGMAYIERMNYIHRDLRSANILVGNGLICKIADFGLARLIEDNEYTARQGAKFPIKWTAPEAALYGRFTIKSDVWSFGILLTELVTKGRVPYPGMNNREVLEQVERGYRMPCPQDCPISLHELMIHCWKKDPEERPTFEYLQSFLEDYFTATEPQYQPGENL

IC50 | Compound
4.06 µM | OC1CCC(Nc2nn3c(-c4ccc(F)c(Cl)c4)cnc3s2)CC1 (stereo not shown) [Compound 547, 4-[[5-(3-chloro-4-fluoro-phenyl)imidazo [2,1-b][1,3,4]thiadiazol-2-yl]amino] cyclohexanol]
5.12 µM | COc1ccc(-c2cnc3sc(NCCc4ccc(S(N)(=O)=O)cc4)nn23)cc1OC [Compound 548, 4-[2-[[5-(3,4-dimethoxyphenyl)imidazo[2,1-b] [1,3,4]thiadiazol-2-yl]amino]ethyl]benzene-sulfonamide]
3.14 µM | COc1ccc(-c2cnc3sc(NCCc4ccncc4)nn23)cc1OC [Compound 550, 5-(3,4-dimethoxy-phenyl)-N-[2-(4-pyridyl)ethyl]imidazo [2,1-b][1,3,4] thiadiazol-2-amine]
2.03 µM | COc1ccc(-c2cnc3sc(NCCc4ccncc4)nn23)cn1 [Compound 552, 5-(6-methoxy-3-pyridyl)-N-[2-(4-pyridyl)ethyl] imidazo[2,1-b] [1,3,4]thiadiazol-2-amine]
1.88 µM | NS(=O)(=O)c1ccc(CCNc2nn3c(-c4cccnc4)cnc3s2)cc1 [Compound 553, 4-[2-[[5-(3-pyridyl)imidazo [2,1-d][1,3,4]thiadiazol-2-yl]amino]ethyl] benzene-sulfonamide]
3.82 µM | c1csc(CNc2nn3c(-c4ccc(N5CCOCC5)cc4)cnc3s2)c1 [Compound 554, 5-(4-morpholino-phenyl)-N-(2-thienylmethyl) imidazo[2,1-b] [1,3,4]thiadiazol-2-amine]
3.66 µM | Clc1ccc(-c2cnc3sc(NCc4cccnc4)nn23)cc1 [Compound 556, 5-(4-chlorophenyl)-N-(3-pyridylmethyl) imidazo[2,1-b] [1,3,4]thiadiazol-2-amine]
1.32 µM | CC(=O)Nc1cccc(-c2cnc3sc(NCCc4ccncc4)nn23)c1 [Compound 557, N-[3-[2-[2-(4-pyridyl)ethyl-amino]imidazo [2,1-b][1,3,4]thiadiazol-5-yl]phenyl] acetamide]
0.721 µM | CN(C)C(=O)c1cccc(-c2cnc3sc(NCCc4ccncc4)nn23)c1 [Compound 558, N,N-dimethyl-3-[2-[2-(4-pyridyl)ethyl-amino]imidazo [2,1-b][1,3,4]thiadiazol-5-yl]benzamide]
4.82 µM | Fc1ccc(-c2cnc3sc(NCCN4CCOCC4)nn23)cc1Cl [Compound 561, 5-(3-chloro-4-fluoro-phenyl)-N-(2-morpholino-ethyl)imidazo [2,1-b][1,3,4] thiadiazol-2-amine]
2.43 µM | c1cc(CCNc2nn3c(-c4ccncc4)cnc3s2)ccn1 [Compound 562]
3 µM | CC(=O)c1ccc(-c2cnc3sc(NCCN4CCOCC4)nn23)s1 [Compound 564, 1-[5-[2-(2-morpholinoethyl-amino)imidazo [2,1-b][1,3,4]thiadiazol-5-yl]-2-thienyl] ethanone]
1.13 µM | CC(C)CNc1nn2c(-c3cccc(C(N)=O)c3)cnc2s1 [Compound 569, 3-[2-(isobutylamino)imidazo[2,1-b] [1,3,4]thiadiazol-5-yl]benzamide]
2.92 µM | OC1CCC(Nc2nn3c(-c4cccc(F)c4)cnc3s2)CC1 (stereo not shown) [Compound 571, 4-[[5-(3-fluorophenyl)imidazo[2,1-b] [1,3,4]thiadiazol-2-yl]amino] cyclohexanol]
1.94 µM | c1cncc(-c2cnc3sc(NCc4cccs4)nn23)c1 [Compound 573, 5-(3-pyridyl)-N-(2-thienylmethyl) imidazo[2,1-b] [1,3,4]thiadiazol-2-amine]
2.13 µM | COc1ccc(-c2cnc3sc(NCc4ccncc4)nn23)cc1OC [Compound 574, 5-(3,4-dimethoxy-phenyl)-N-(4-pyridylmethyl) imidazo[2,1-b] [1,3,4]thiadiazol-2-amine]

Second part, the compound before the results:

Compound | IC50
COc1ccccc1-c1n[nH]c2nccc(-c3ccco3)c12 [Compound 531, 4-(2-furyl)-3-(2-methoxyphenyl)-1H-pyrazolo[3,4-b]pyridine] | 2.28 µM
COc1ccccc1-c1n[nH]c2nccc(-c3ccc(CO)cc3)c12 [Compound 532, [4-[3-(2-methoxyphenyl)-1H-pyrazolo[3,4-b]pyridin-4-yl]phenyl] methanol] | 1.1 µM
COc1ccccc1-c1n[nH]c2nccc(-c3cccc(C(C)=O)c3)c12 [Compound 533, 1-[3-[3-(2-methoxyphenyl)-1H-pyrazolo[3,4-b]pyridin-4-yl]phenyl] ethanone] | 6.6 µM
c1cc(-c2n[nH]c3nccc(-c4ccoc4)c23)ccn1 [Compound 534, 4-(3-furyl)-3-(4-pyridyl)-1H-pyrazolo[3,4-b]pyridine] | 20.2 µM
Nc1cccc(-c2ccnc3[nH]nc(-c4cccc(F)c4)c23)c1 [Compound 535, 3-[3-(3-fluorophenyl)-1H-pyrazolo[3,4-b]pyridin-4-yl]aniline] | 15.1 µM
NC(=O)c1cccc(-c2ccnc3[nH]nc(-c4ccccc4)c23)c1 [Compound 536, 3-(3-phenyl-1H-pyrazolo[3,4-b]pyridin-4-yl)benzamide] | 11.7 µM
COc1cc(-c2n[nH]c3nccc(-c4cccc(N)c4)c23)cc(OC)c1OC [Compound 537, 3-[3-(3,4,5-trimethoxy-phenyl)-1H-pyrazolo[3,4-b]pyridin-4-yl]aniline] | 14.8 µM
COc1cc(-c2n[nH]c3nccc(-c4cccc(F)c4)c23)cc(OC)c1OC [Compound 538, 4-(3-fluorophenyl)-3-(3,4,5-trimethoxy-phenyl)-1H-pyrazolo[3,4-b]pyridine] | 5.23 µM
O=C(O)/C=C/c1cccc(-c2cnn3ccc(NCc4cccnc4)nc23)c1 [Compound 539, (E)-3-[3-[5-(3-pyridylmethyl-amino)pyrazolo [1,5-a]pyrimidin-3-yl]phenyl]prop-2-enoic acid] | 2.27 µM
COc1cc(-c2cc(-c3cccc(C(N)=O)c3)cnc2N)cc(OC)c1OC [Compound 540, 3-[6-amino-5-(3,4,5-trimethoxy-phenyl)-3-pyridyl] benzamide] | 0.442 µM
CC(=O)c1ccc(-c2cnc(N)c(-c3cccc(N(C)C)c3)c2)s1 [Compound 541, 1-[5-[6-amino-5-[3-(dimethyl-amino)phenyl]-3-pyridyl]-2-thienyl]ethanone] | 3.42 µM
CNc1ccc2ncc(/C=C\CCCO)n2n1 [Compound 542, (Z)-5-[6-(methylamino)imidazo[1,2-b]pyridazin-3-yl]pent-4-en-1-ol] | 31.5 µM
COc1cc(-c2cnc3sc(NCC4CCOCC4)nn23)ccc1O [Compound 543, 2-methoxy-4-[2-(tetrahydropyran-4-ylmethyl-amino)imidazo [2,1-b][1,3,4]thiadiazo-5-yl]phenol] | 2.16 µM
COc1ccc(-c2cnc3c(NC(C)=O)cc(-c4cccc(NC(C)=O)c4)cn23)cc1OC [Compound 544, N-[3-[8-acetamido-3-(3,4-dimethoxy-phenyl)imidazo [1,2-a]pyridin-6-yl]phenyl] acetamide] | 1.6 µM
COc1cccc(-c2cc(NC(C)=O)c3ncc(-c4cccc(C(C)=O)c4)n3c2)c1 [Compound 545, N-[3-(3-acetylphenyl)-6-[3-methoxy-phenyl)imidazo [1,2-a]pyridin-8-yl]acetamide] | 3.05 µM
COc1cncc(-c2cnc3sc(NCc4ccncc4)nn23)c1 [Compound 546, 5-(5-methoxy-3-pyridyl)-N-(4-pyridylmethyl) imidazo[2,1-b][1,3,4] thiadiazol-2-amine] | 0.932 µM
COc1ccc(-c2cc(NC(C)=O)c3ncc(-c4cccc(C(C)=O)c4)n3c2)c(OC)c1 [Compound 549, N-[3-(3-acetylphenyl)-6-(2,4-dimethoxy-phenyl)imidazo [1,2-a]pyridin-8-yl]acetamide] | 2.5 µM
c1cc(CNc2nn3c(-c4ccncc4)cnc3s2)ccn1 [Compound 551, 5-(4-pyridyl)-N-(4-pyridylmethyl) imidazo[2,1-b] [1,3,4]thiadiazol-2-amine] | 2.65 µM
COc1ccc(CNc2nn3c(-c4ccc(CO)cc4)cnc3s2)cc1 [Compound 555, [4-[2-[(4-methoxyphenyl)methylamino]imidazo[2,1-b] [1,3,4]thiadiazol-5-yl]phenyl] methanol] | 2.81 µM
COc1ccc(CNc2nn3c(-c4ccc(O)c(OC)c4)cnc3s2)cc1 [Compound 559, 2-methoxy-4-[2-[(4-methoxy-phenyl)methyl-amino]imidazo [2,1-b][1,3,4]thiadiazol-5-yl]phenol] | 1.78 µM
COc1ccc(-c2cnc3sc(NCc4cccnc4)nn23)cn1 [Compound 560, 5-(6-methoxy-3-pyridyl)-N-(3-pyridylmethyl) imidazo[2,1-b] [1,3,4]thiadiazol-2-amine] | 2.94 µM
COc1ccc(-c2cnc3sc(NC4CCC(O)CC4)nn23)cn1 (stereo not shown) [Compound 563, 4-[[5-(6-methoxy-3-pyridyl)imidazo[2,1-b] [1,3,4]thiadiazol-2-yl]amino] cyclohexanol] | 1.61 µM
COc1ccccc1-c1cc(NC(C)=O)c2ncc(-c3cccc(C(C)=O)c3)n2c1 [Compound 565, N-[3-(3-acetylphenyl)-6-[2-methoxy-phenyl)imidazo [1,2-a]pyridin-8-yl]acetamide] | 1.58 µM
CS(=O)(=O)Nc1cccc(-c2cc(NC=O)c3ncc(-c4ccc(F)c(Cl)c4)n3c2)c1 [Compound 566, N-[3-(3-chloro-4-fluoro-phenyl)-6-[3-(methane-sulfonamido)phenyl]imidazo [1,2-a]pyridin-8-yl]formamide] | 2.86 µM
c1csc(CNc2nn3c(-c4ccncc4)cnc3s2)c1 [Compound 567, 5-(4-pyridyl)-N-(2-thienylmethyl) imidazo[2,1-b] [1,3,4]thiadiazol-2-amine] | 3.62 µM
CS(=O)(=O)Nc1cccc(-c2cnc3sc(NC4CCCCC4)nn23)c1 [Compound 568, N-[3-[2-(cyclohexylamino)imidazo[2,1-b] [1,3,4]thiadiazol-5-yl]phenyl] methane-sulfonamide] | 4.33 µM
COc1ccc(-c2cnc3sc(NC4CCC(O)CC4)nn23)cc1OC (stereo not shown) [Compound 572, 4-[[5-(3,4-dimethoxyphenyl)imidazo[2,1-b] [1,3,4]thiadiazol-2-yl]amino] cyclohexanol] | 0.483 µM
